Assay results taken from US12673041B2, “4-aminobut-2-enamide derivatives and salt thereof” (TAIHO PHARMACEUTICAL CO., LTD., priority 2019, dated 2026).
Like-named read-outs stand apart in the source and are kept apart here.

What was measured:
[1] = biological target: T1, GMPPNP-bound KRAS G12C protein and cRAF RAS-binding domain (cRAF-RBD) (Homo sapiens, UniProt P01116, G12C); experiment: Inhibitory activity on interaction between KRAS G12C and cRAF (Alpha technology); format: biochemical; conditions: GMPPNP-bound KRAS G12C incubated with compound at 25° C. for 1 hour, then cRAF-RBD, Alpha signal; read-out: IC50
T1 construct: made in house; host or cells: E. coli
How it was run: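 GMPPNP-loaded His-KRAS G12C (aa 1-169) preincubated 1 h at 25 °C with compound (pH 7.5 Tris, 1 mM MgCl2, TCEP, Tween 20), then cRAF-RBD (aa 50-132) and Alpha reagents added for 1.5 h at RT. Inhibition scaled between DMSO (0%) and GDP-bound KRAS (100%); IC50 by curve fitting.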

[2] = biological target: T2, activated KRAS in MIA PaCa-2 (Homo sapiens, UniProt P01116, G12C); experiment: Amount of activated KRAS on KRAS-G12C mutant cell line MIA PaCa-2 (Ras GTPase Chemi ELISA); format: cell-based; conditions: for IC50: 1 hour with compound
T2 construct: host or cells: MIA PaCa-2
Method: NCI-H358 [H358, H358] (ATCC® CRL5807™), which is a KRAS-G12C mutant human lung cancer cell line, and MIA PaCa-2 (ATCC® CRL-1420™), which is a KRAS-G12C mutant human pancreas cancer cell line, were suspended in a 10% fetal bovine serum-containing RPMI1640 medium (manufactured by Thermo Fischer SCIENTIFIC), respectively. The cell suspension was seeded into a cell culture plate and cultured in an incubator containing 5% CO2 gas at 37° C. for 1 day. The lyophilized recombinant human EGF protein (R&D systems, Cat #: 236-EG-200) was dissolved in PBS to make 0.5 mg/ml solution. The EGF solution in PBS was diluted by 0.4% with the medium used for suspending cells and added to each cell-culture plate to give an EGF final concentration of 100 ng/ml, followed by leaving to stand at ambient temperature for 5 minutes. Then, the compounds obtained in the “Preparation of Compounds” section were used as test compounds and were dissolved in DMSO, and each test compound was diluted with DMSO to give a concentration 200 times the final concentration. The solution of the test compound in DMSO was diluted with the medium used for suspending cells and added to each well of the cell-culture plate to give a DMSO final concentration of 0.5%, followed by culture in an incubator containing 5% CO2 gas at 37° C. for another 1 hour. The amount of activated KRAS after 1 hour culture in the presence of the compound was measured using Ras GTPase Chemi ELISA Kit (manufactured by Active Motif). The ratio of KRAS activity was calculated from the following equation, and the concentration of the test compound at which activity was suppressed to 50% (IC50 (μM)) was determined. […] The Ratio of KRAS activity to control (%)=(T−BG)/(C−BG)×100 • T: the emission intensity in a well into which a test compound was added. • C: the emission intensity in a well into which a test compound was not added. • BG: the emission intensity in a well into which neither a test compound nor a cell suspension was added.

MIA PaCa-2 cells = experiment: Growth inhibition activity on KRAS-G12C mutant cell line (MIA PaCa-2); format: cell-based; conditions: Homo sapiens, 72 h; MIA PaCa-2, 3-day culture, CellTiter-Glo 3D
How it was run: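 KRAS-G12C human pancreatic MIA PaCa-2 cells in RPMI1640 + 10% FBS, seeded in U-bottom plates and grown 1 day, then exposed to compound (0.2% DMSO final) for 3 days at 37 °C, 5% CO2. Viability by CellTiter-Glo 3D luminescence; IC50 from inhibition relative to untreated wells.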

[3] = MIA PaCa-2, with EGF 100 ng/ml, read-out: IC50 MIA PaCa-2 with EGF
[4] = MIA PaCa-2, without EGF, read-out: IC50 MIA PaCa-2 without EGF

T1 sequence (P01116 with tags, fused parts or gaps isoform P01116-2 G12C): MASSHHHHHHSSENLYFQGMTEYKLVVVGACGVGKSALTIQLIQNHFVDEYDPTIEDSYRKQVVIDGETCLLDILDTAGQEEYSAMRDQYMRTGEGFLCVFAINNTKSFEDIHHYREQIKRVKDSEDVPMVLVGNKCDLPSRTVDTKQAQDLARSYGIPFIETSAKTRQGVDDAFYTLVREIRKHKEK
T2 sequence (P01116 1-188 isoform P01116-2 G12C): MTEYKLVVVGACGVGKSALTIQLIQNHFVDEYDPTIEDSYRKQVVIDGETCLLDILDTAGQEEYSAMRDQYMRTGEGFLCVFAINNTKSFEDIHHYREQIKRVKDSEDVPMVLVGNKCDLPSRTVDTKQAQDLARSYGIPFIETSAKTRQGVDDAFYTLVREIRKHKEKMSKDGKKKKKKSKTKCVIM

IC50 [1] [nM] | IC50 [2, 3] [nM] | IC50 [2, 4] [nM] | IC50 (MIA PaCa-2 cells) [nM] | Compound | KRAS inhibition activity under EGF treatment ([2]; MIA PaCa-2, EGF treatment)
180 | 1000 | 780 | – | CCc1nc2cc(-c3cccc(NC(=O)c4ccc(NC(=O)/C=C/CN[C@H]5CC[C@H](OC)CC5)c(C#N)c4)c3)c(C(F)(F)F)cc2n1C [Example 1, 3-cyano-N-(3-(2-ethyl-1-methyl-6-(trifluoromethyl)-1H-benzo[d]imidazol-5-yl)phenyl)-4-((E)-4-(((1r, 4r)-4-methoxycyclohexyl)amino)but-2-enamido)benzamide] | –
23 | 440 | 300 | 140 | CO[C@H]1CC[C@H](NC/C=C/C(=O)Nc2ccc(C(=O)c3ccc4c(-c5cc6ncn(C)c6cc5C)cccn34)cc2C#N)CC1 [Example 4, (E)-N-(2-cyano-4-(8-(1,6-dimethyl-1H-benzo[d]imidazol-5-yl)indolizine-3-carbonyl)phenyl)-4-(((1r,4r)-4-methoxycyclohexyl)amino)but-2-enamide] | –

Compound | IC50 [1] [nM] | IC50 [2, 3] [nM] | IC50 [2, 4] [nM] | IC50 (MIA PaCa-2 cells) [nM] | KRAS inhibition activity under EGF treatment ([2]; MIA PaCa-2, EGF treatment)
C=CC(=O)N1CCN(c2ncnc3c(F)c(-c4c(O)cccc4F)c(Cl)cc23)CC1 [ARS-1620, reference compound] | > 67000 | 4200 | 650 | – | attenuated by EGF treatment
